In US20250127778A1, “CANCER IMMUNOTHERAPY COMPOSITION CONTAINING INTERACTION INHIBITOR OF STING AND TRIM29 AS ACTIVE INGREDIENT” (SPARK BIOPHARMA, INC, priority 2021, published 2025):

Experiments:
[1] = Body weight and toxicity signals in CT26 syngeneic mouse model; type: in vivo; conditions: treated individually or in combination, FIG. 24
Method: 2×10^5 CT26 cell lines were prepared in 50 μL culture medium and subcutaneously injected. […] The cGAMP solution was manufactured with a final composition of PEG400:distilled water=40:60, and 20 μL was injected each time. The solution of the compound of Formula 1 was manufactured with the composition of DMSO:PEG400:distilled water=2:40:58, and 20 μL was injected each time. The cGAMP solution was injected once every two days, four times in total, and the solution of the compound of Formula 1 was injected once every four days, two times in total, starting with the second administration of cGAMP. The size of the tumor was measured by using calipers every two days, and the volume thereof was calculated as (length×width×height/2). The body weight of the mice was also measured every two days.

[2] = tested on: phosphorylation of downstream signaling proteins TBK1 and IRF3; experiment: Western blotting of STING sub-immune signaling pathway activation; type: cell-based; conditions: cGAMP alone; FIG. 7
Method: First, the A431 cell line was seeded in a transparent 12-well plate and cultured for one day. Thereafter, the cells were treated with the compounds of Formulas 1 to 6, respectively, and then cultured for additional 24 hours. Finally, after supernatant culture medium of the cells was removed, the remaining supernatant was diluted and removed with PBS (phosphate buffer saline) to prepare a Western blotting sample. All procedures for preparing Western blotting sample were performed at 4° C. […] The protein concentration of the supernatant was measured by using the Micro BCA™ protein assay kit (ThermoFisher) according to the protocol of the manufacturer. […] The treated samples were analyzed by SDS-PAGE, then transferred to a PVDF membrane, and cultured in a TBST solution containing 4% BSA for 30 minutes. […] Finally, after four TBST washing processes, the solution was developed with an ECL (enhanced chemiluminescence) prime solution of Amersham, the chemical luminescence signal was measured by using ChemiDoc MP of Bio-Rad Laboratories, Inc., the obtained results were quantified by using the ImageLab 6.0 program, and the results were plotted by using the Prism 8.0 program. […]

Nc1nc2c(ncn2[C@@H]2O[C@@H]3COP(=O)(O)O[C@H]4[C@@H](O)[C@H](n5cnc6c(N)ncnc65)O[C@@H]4COP(=O)(O)O[C@@H]2[C@@H]3O)c(=O)[nH]1 [cGAMP, 2′,3′-Cyclic GMP-AMP, reference compound]
body weight change or signal of toxicity [1]: significant change in body weight or signal of toxicity was not observed
phosphorylation of TBK1 and IRF3 [2]: increased
